System: AGEs production (BSA + Methylglyoxal)
Test: Inhibition of AGEs production: co-incubation with BSA and MGO, fluorescence read-out
Assay type: biochemical
Settings: Compound concentration 1mg/mL
Procedure: Bovine serum albumin (BSA) can interact with Methylglyoxal (MGO) to produce AGEs. The compound to be tested was co-incubated with BSA and MGO, and the level of the AGEs production was determined through detecting change of fluorescence value in the system, to thereby evaluate whether or not the compound had inhibitory effect on the AGEs production. […]
With reference to the method of Test Example 1, the inhibitory effect of the AGEs inhibitory compositions of Examples 1-3 on AGEs production was examined. The test results were as follows: Table 13 Inhibitory effect of the AGEs inhibitory compositions on AGEs production

SMILES	AGEs production inhibition rate % (Table 1, bilberry extracts with different anthocyanin contents) [%]	AGEs production inhibition rate % (Table 9, 7 samples) [%]
N=C(N)NN [Aminoguanidine]	101.1	101.1
Cc1ncc(C[n+]2csc(CCO)c2C)c(N)n1 [Vitamin B1]	–	87.3
Cc1cc2nc3c(=O)[nH]c(=O)nc-3n(C[C@H](O)[C@H](O)[C@H](O)CO)c2cc1C [Vitamin B2]	–	94.3
Cc1ncc(CO)c(CO)c1O.Cl [Vitamin B6]	–	77.6

Source: patent EP3689361A1, “APPLICATION OF CRANBERRY OR EXTRACT THEREOF IN PREPARATION OF MEDICATIONS OR HEALTH-CARE FOOD FOR TREATING, DELAYING OR ALLEVIATING AGES-RELATED DISEASES” (BY-Health Co., Ltd., priority 2018, dated 2020)
